# Data from US20040102454A1, “Phenylahistin and the phenylahistin analogs, a new class of anti-tumor compounds” (priority 1998, published 2004).
# Where a name gives a salt, the structure may show the parent alone. Read-outs that look alike come from different tables or passages of the source.
# Experiments:
# [1] = test system: P388 cells; assay: P388 proliferation, Alamar Blue assay; assay type: cell-based, murine
# Protocol: For this example, the Alamar Blue™ assay was performed as follows. Exponentially growing P388 cells were seeded into 96-well tissue culture plates (5×10^3 cells/100 μl/well) and cultured in RPMI 1640 medium supplemented with 10% fetal bovine serum for 16 h. Compounds (DMSO solution) were then added to each well at various concentrations, and the cells were cultured for an additional 48 h. Living cells were counted using Alamar Blue™ (BioSource International, Camarillo, Calif.), according to the method of Ahmed, S. A. et al., J. Immunol. Methods, 170, 211 (1994).
# [2] = test system: Microtubule protein from bovine brain; assay: Microtubule protein polymerization assay (turbidity); assay type: biochemical
# Protocol: Microtubule protein was prepared from bovine brain tissue by two cycles of assembly and disassembly according to the method of Tiwari, S. C. et al. Anal. Biochem, (1993), 215, 96-103. Tubulin was purified from microtubule protein by phosphocellulose chromatography see Algaier, J. et al. Biochim. Biophys. Acta, (1988), 954, 235-43, and tubulin purity was evaluated by polyacrylamide gel electrophoresis, as in Laemmli, U.K., Nature, (1970), […], 680-85. […] Protein concentrations were determined using the Coomassie® Protein Assay Reagent from Pierce (Rockford, Ill.).
# Polymerization of microtubule protein was monitored by an increase in turbidity at 37° C. in microtubule assembly buffer containing 100 mM MES, 0.5 mM MgCl2, 1 mM EGTA and 1 mM GTP. See Johnson, K. A. et al., J. Mol. Biol., (1977), 117, 1-31. Polymerization of purified tubulin was measured using the same method except the microtubule assembly buffer contained 4 M glycerol. See Lee, J. C. et al., Biochemistry, (1975), 14, 5183-87. Microtubule protein and tubulin polymerization was initiated by a temperature shift from 0° C. to 37° C. and turbidity was measured on a DU-20 thermocontrolled spectrophotometer from Beckman (Fullerton, Calif.) at 360 nm. Drugs were dissolved in dimethyl sulfoxide (DMSO), which was used in all experiments at a final concentration of 2% (v/v).
# For this example, the microtubule protein polymerization assay was performed as follows. Microtubule protein was prepared from bovine brain tissue by two cycles of assembly and disassembly. Polymerization of microtubule protein was monitored by an increase in turbidity at 37° C. in microtubule assembly buffer containing 100 mM MES, 0.5 mM MgCl2, 1 mM EGTA and 1 mM GTP. The polymerization of microtubule protein was initiated by a temperature shift from 0° C. to 37° C. Turbidity was measured on a thermo-controlled spectrophotometer (Beckman DU-20, Fullerton, Calif.) at 360 nm. Compounds were dissolved in DMSO, which was used in all experiments at a final concentration of 2% (v/v).
# [3] = test system: C. albicans 10231; assay: Antifungal susceptibility testing, broth dilution (NCCLS M38-A); assay type: cell-based, Candida albicans
# Protocol: (§1) Antifungal susceptibility testing was accomplished according to the methods outlined in the National Committee for Clinical Laboratory Standards, M38-A “Reference Method for Broth Dilution Antifungal Susceptibility Testing of Conidium-Forming Filamentous Fungi; Approved Standard.” This includes testing in RPMI-1640 with glutamine and without bicarbonate, an inoculum size of 0.4-5×10^4, and incubation at 30 or 35° C. for 48 hours. […] Drug concentrations were 0.03-16 μg/ml for the investigational compounds, 0.015-8 μg/ml for itraconazole and griseofulvin.
# (§2) The minimum lethal concentration (MLC) was determined by plating […] from the MIC concentration and each concentration above the MIC. […] When a MIC was obtained, a minimum fungicidal concentration (MFC) was determined to assess the fungistatic/fungicidal nature of the compound. […] The compound is scored as fungistatic if the cells are able to resume growth and fungicidal if no regrowth is possible because the compound had killed the organisms.
# [4] = test system: C. albicans 90028; assay: as above; assay type: cell-based, Candida albicans
# Protocol: as §1, §2
# [5] = test system: C. glabrata; assay: as above; assay type: cell-based, Candida glabrata
# Protocol: as §1, §2
# [6] = test system: microtubules in A549 cells; assay: Immunofluorescence staining of microtubules; assay type: cell-based, human; conditions: 6 hours incubation
# Protocol: Immunocytochemical staining was performed using the method described by Yahara, I. et al., Cell (1978) 15, 251-259. A549 cells were cultured on glass coverslips and incubated with the test drug for 6 hours. The cells were then fixed with 3.7% formaldehyde for 30 min, permeabilized with 0.2% Triton X-100 for 5 min, and incubated with a mouse monoclonal antibody against α-tubulin (Calbiochem®, Oncogene Research Products, Cambridge, Mass.), followed by incubation with fluorescein isothiocyanate-conjugated goat anti-mouse IgG from Cosmo Bio Co., (Tokyo, Japan), and the cells were examined under an immunofluorescent microscope.
# [7] = test system: T. mentagrophytes isolate #2; assay: Antifungal susceptibility testing, broth dilution (NCCLS M38-A); assay type: cell-based, Trichophyton mentagrophytes; conditions: 80% reduction in turbidity
# Protocol: as §1, §2
# [8] = test system: T. mentagrophytes isolate #1; assay: as above; assay type: cell-based, Trichophyton mentagrophytes
# Protocol: as §1, §2
# [9] = test system: T. rubrum isolate #2; assay: as above; assay type: cell-based, Trichophyton rubrum
# Protocol: as §1, §2
# [10] = test system: T. rubrum isolate #1; assay: as above; assay type: cell-based, Trichophyton rubrum; conditions: T. rubrum isolate #1; 80% reduction in turbidity
# Protocol: as §1, §2
# [11] = test system: E. floccosum isolate #2; assay: as above; assay type: cell-based, Epidermophyton floccosum
# Protocol: as §1, §2
# [12] = test system: E. floccosum isolate #1; assay: as above; assay type: cell-based, Epidermophyton floccosum; conditions: 80% reduction in turbidity
# Protocol: as §1, §2
# [13] = test system: MES-SA DX (Taxol Resistant) human uterine sarcoma tumor cell line; assay: Drug resistant cell line pair, cytotoxicity; assay type: cell-based
# Description: MES-SA (Taxol Sensitive) and MES-SA DX (Taxol Resistant). This cell line expresses elevated mdr-1 mRNA and P-glycoprotein (an extrusion pump mechanism). Pretreatment with cyclosporin-A (CsA) blocks P-glycoprotein and reinstates activity in the resistant cell line for those compounds for which the resistance is due to elevated P-glycoprotein.
# [14] = test system: HT-29 human colon tumor; assay: HT-29 Human Colon Tumor Xenograft Model; assay type: in vivo, nude mice; conditions: CPT-11 100 ip qwx3 alone; study 2139
# Protocol: Animals used were (exceptions are indicated for individual studies): female nude mice (nu/nu) between 5 and 6 weeks of age (˜20 g, Harlan); group size was 9-10 mice per group unless otherwise indicated. The selected novel compound was administered as monotherapy via the intraperitoneal (i.p.) route at the doses indicated for the individual study; for the combination studies the selected reference chemotherapy agents were injected 15-30 min prior to the compound. Vehicles used in these studies were: 12.5% DMSO, 5% Cremaphor and 82.5% peanut oil for the selected novel compounds; (1:3) Polysorbate 80:13% ethanol for taxotere; […] Saline dilutions are used to achieve the injection concentrations used for the reference compounds. Animals were implanted subcutaneously (s.c.) by trocar with fragments of HT-29 tumors harvested from s.c. growing tumors in nude mice hosts. […] CPT-11 was administered intraperitoneally on days 1, 8 and 15 (qw×3).
# [15] = Alamar Blue assay (Table 4), read-out: IC50 for P388 Proliferation
# [16] = means (±SEM) of three experiments (Table 9), read-out: IC50 P388 proliferation
# [17] = microtubule protein 1.5 mg/mL (Table 9), read-out: IC50 Microtubule Protein polymerization
# [18] = microtubule protein 1.5 mg/ml (Table 4), read-out: IC50 for Microtubule Protein Polymerization
# [19] = Mus musculus, P388, means (±SEM) of three experiments (Table 9), read-out: IC50 P388 proliferation
molecule,measurement,setting,value
"(−)-Cyclo-[5-(1,1-dimethylpropyl)dehydrohistidinyl-L-phenylalanine] [Compound 3]",IC50,[1]; [15],0.23 µM
same,IC50,[1]; [16],0.23 µM
same,IC50,[2]; [17],30 µM
same,IC50,[2]; [18],30 µM
"O=C1CNC(=O)C(Cc2ccccc2)N1 [Compound 7, Cyclo-[glycinyl-L-phenylalanine]]",IC50,"[1]; Mus musculus, P388, Alamar Blue assay (Table 4), read-out: IC50 for P388 Proliferation",> 200 µM
same,IC50,[2]; [18],> 200 µM
COc1cc2c(c(OC)c1OC)-c1ccc(OC)c(=O)cc1[C@@H](NC(C)=O)CC2 [colchicine],MIC,"[3]; Candida albicans, 10231",> 128 µg/mL
same,MIC,"[4]; Candida albicans, 90028",> 128 µg/mL
same,MIC,[5]; Nakaseomyces glabratus,> 128 µg/mL
same,microtubule structure (anti α-tubulin staining),[6],staining profile similar to that of (−)-PLH-treated cells
"Cc1[nH]cnc1C=C1NC(=O)[C@H](Cc2ccccc2)NC1=O [Compound 20, Cyclo-[(5-methyl)dehydrohistidinyl-L-phenylalanine]]",IC50,[1]; [16],15 µM
same,"inhibition percentage at 200 μM, microtubule protein polymerization",[2],9%
same,IC50,[2]; [17],> 200 µM
CCCCNC(=O)n1c(NC(=O)OC)nc2ccccc21 [benomyl],MIC,"[3]; Candida albicans, C. albicans 10231, 80% reduction in turbidity, read-out: MIC",64 µg/mL
same,MFC,"[3]; Candida albicans, C. albicans 10231, read-out: MFC",> 512 µg/mL
same,MIC,"[4]; Candida albicans, C. albicans 90028, 80% reduction in turbidity, read-out: MIC",64 µg/mL
same,MFC,"[4]; Candida albicans, C. albicans 90028, read-out: MFC",> 512 µg/mL
same,MIC,"[5]; Nakaseomyces glabratus, C. glabrata, 80% reduction in turbidity, read-out: MIC",64 µg/mL
same,MFC,"[5]; Nakaseomyces glabratus, C. glabrata, read-out: MFC",> 512 µg/mL
"O=C1NC(Cc2ccccc2)C(=O)NC1=Cc1c[nH]cn1 [Compound 19, Cyclo-[dehydrohistidinyl-L-phenylalanine]]",IC50,[1]; [19],> 200 µM
same,"inhibition percentage at 200 μM, microtubule protein polymerization",[2],11%
same,IC50,[2]; [17],> 200 µM
C[C@@H]1[C@H](O)[C@@H](C)/C=C/C=C/C=C/C=C/C=C/C=C/C=C/[C@H](O[C@@H]2O[C@H](C)[C@@H](O)[C@H](N)[C@@H]2O)C[C@@H]2O[C@](O)(C[C@@H](O)C[C@@H](O)[C@H](O)CC[C@@H](O)C[C@@H](O)CC(=O)O[C@H]1C)C[C@H](O)[C@H]2C(=O)O [amphotericin B],MFC,[3]; C. albicans 10231,0.5 µg/mL
same,MIC,"[3]; C. albicans 10231, 80% reduction in turbidity",0.5 µg/mL
same,MFC,[4]; C. albicans 90028,0.5 µg/mL
same,MIC,"[4]; C. albicans 90028, 80% reduction in turbidity",0.5 µg/mL
same,MFC,[5]; C. glabrata,1 µg/mL
same,MIC,"[5]; C. glabrata, 80% reduction in turbidity",1 µg/mL
C=CC(C)(C)c1[nH]cnc1/C=C1\NC(=O)[C@H](Cc2ccccc2)NC1=O [NPI2350],MIC,[7],>16 µg/mL
same,MFC,[8],>16 µg/mL
same,MIC,[8]; 80% reduction in turbidity,16 µg/mL
same,MFC,[9],>16 µg/mL
same,MIC,[9]; 80% reduction in turbidity,0.16 µg/mL
same,MIC,[10],>16 µg/mL
same,MICs and MFCs,[11],>16 µg/mL
same,MIC,[12],>16 µg/mL
"COc1cc([C@@H]2c3cc4c(cc3[C@@H](O[C@@H]3O[C@@H]5CO[C@@H](C)O[C@H]5[C@H](O)[C@H]3O)[C@H]3COC(=O)[C@H]23)OCO4)cc(OC)c1O [etoposide, reference compound]",reduced susceptibility of the MES-SA DX cell line,[13],60 fold
"C=CC(C)(C)c1c(C=C2C(=O)N(C)[C@@H](Cc3ccccc3)C(=O)N2C)ncn1C [Compound 15, (−)-Cyclo-N, N′-dimethyl-[(N^im-methyl-5-(1,1-dimethyl-2-propenyl))dehydro-histidinyl-L-phenylalanine]]",IC50,[1]; [16],160 µM
same,IC50,[2]; [17],> 200 µM
"(+)-Cyclo-[5-(1,1-dimethylpropyl)histidinyl-L-phenylalanine] [Compound 6]",IC50,[1]; [15],> 200 µM
same,IC50,[1]; [16],> 200 µM
same,IC50,[2]; [17],> 200 µM
same,IC50,[2]; [18],> 200 µM
"(+)-Cyclo-[5-(1,1-dimethylpropyl)dehydrohistidinyl-L-phenylalanine] [Compound 4]",IC50,[1]; [15],19 µM
same,IC50,[1]; [16],19 µM
same,"inhibition percentage at 200 μM, microtubule protein polymerization",[2],12%
same,IC50,[2]; [17],> 200 µM
same,IC50,[2]; [18],> 200 µM
"CCc1c2c(nc3ccc(OC(=O)N4CCC(N5CCCCC5)CC4)cc13)-c1cc3c(c(=O)n1C2)COC(=O)[C@]3(O)CC [CPT-11, irinotecan hydrochloride, reference compound]",Chemotherapeutic Agent Result TGI %,[14],32.7%
"O=C1N[C@@H](Cc2cnc[nH]2)C(=O)N[C@H]1Cc1ccccc1 [Cyclo-His-Phe, reference compound]",IC50,[1]; [15],> 200 µM
same,IC50,[1]; [16],> 200 µM
same,IC50,[2]; [17],> 200 µM
same,IC50,[2]; [18],> 200 µM
"COc1cccc2c1C(=O)c1c(O)c3c(c(O)c1C2=O)C[C@@](O)(C(=O)CO)C[C@@H]3O[C@H]1C[C@H](N)[C@H](O)[C@H](C)O1 [doxorubicin, reference compound]",reduced susceptibility of the MES-SA DX cell line,[13],34 fold
"(−)-Cyclo-[5-(1,1-dimethylpropyl)histidinyl-L-phenylalanine] [Compound 5]",IC50,[1]; [15],> 200 µM
same,IC50,[1]; [16],> 200 µM
same,IC50,[2]; [17],> 200 µM
same,IC50,[2]; [18],> 200 µM
"C=CC(C)(C)c1c(/C=C2\NC(=O)[C@H](Cc3ccccc3)NC2=O)ncn1C [Compound 14, (−)-Cyclo-[(N^im-methyl-5-(1,-dimethyl-2-propenyl))dehydrohistidinyl-L-phenylalanine]]",IC50,[1]; [19],0.95 µM
same,times less active than (−)-phenylahistin,[2],about 5 times
same,IC50,[2]; [17],100 µM
